Experimental data taken from US20190211020A1 (Agency for Science, Technology and Research, priority 2012, published 2019).
Read-outs that look alike come from different tables or passages of the source.

What was measured:
Nlgn3 knock-out mice = test: Ultrasonic vocalization assay in Nlgn3 knock-out mice (autism model); type: in vivo, mouse; details: 50 microgram/kg intraperitoneal, 30 h and 5 h before testing
Experimental: For biochemical analyses mice were sacrificed by CO2 inhalation, the cerebellum dissected and rapidly placed in a vibratome chamber and sectioned at 300 μm in cold oxygenated aCSF (in mM: 125 NaCl, 2.5 KCl, 1 MgCl2, 2 CaCl2, 1.25 NaH2PO4, 20 Glucose, 26 NaHCO3, 95% O2/5% CO2). Slices obtained were maintained at 33° C. in oxygenated aCSF and treated with 40 μM CGP57380 or 50 nM ETC7168 for 45 mins and tissues were subsequently snap frozen in liquid nitrogen. Tissues were lysed in 25 mM Tris-HCl, 150 mM NaCl, 1% Triton, 0.2% SDS, 5 mM EDTA, 2 mM DTT, 1 mM NaF, 1 mM Na3VO4 containing protease inhibitor cocktail. The soluble fractions were analyzed by immunoblotting with primary antibodies for 24 hrs at 4° C. followed by detection with secondary antibodies for enhanced chemoluminescent detection. […] Behavioral testing was performed using a well-accepted test for autism that consists of quantitative analysis of ultrasonic vocalizations emitted by male mice exposed to females in estrous^75. […] Prior to testing, the estrous cycle of each female mouse was assessed and only females in estrous were kept for testing. […] Subsequently a female in estrous was introduced in the arena, and ultrasonic vocalizations were recorded for 3 min using the Avisoft system (Avisoft Bioacoustics) with a frequency bandwidth of 30 kHz to 100 kHz. The number and length of ultrasonic vocalizations were quantified. […]

[1] = tested on: eIF4G levels in brain sections from Nlgn3 knock-out mice; test: Immunoblot of eIF4G in brain slices of Nlgn3 knock-out mice; design: species or system mouse; details: 40 μM CGP57380 or 50 nM ETC7168
Experimental: For biochemical analyses mice were sacrificed by CO2 inhalation, the cerebellum dissected and rapidly placed in a vibratome chamber and sectioned at 300 μm in cold oxygenated aCSF (in mM: 125 NaCl, 2.5 KCl, 1 MgCl2, 2 CaCl2, 1.25 NaH2PO4, 20 Glucose, 26 NaHCO3, 95% O2/5% CO2). Slices obtained were maintained at 33° C. in oxygenated aCSF and treated with 40 μM CGP57380 or 50 nM ETC7168 for 45 mins and tissues were subsequently snap frozen in liquid nitrogen. Tissues were lysed in 25 mM Tris-HCl, 150 mM NaCl, 1% Triton, 0.2% SDS, 5 mM EDTA, 2 mM DTT, 1 mM NaF, 1 mM Na3VO4 containing protease inhibitor cocktail. The soluble fractions were analyzed by immunoblotting with primary antibodies for 24 hrs at 4° C. followed by detection with secondary antibodies for enhanced chemoluminescent detection. Impact of MNK inhibitors on autism-related behavior was tested in a knock-out mouse model for autism. Nlgn3 knock-out mouse model a human mutation identified in patients with autism^73-74. Compounds were applied in DMSO using intraperitoneal injection in adult male mice (2-4 months of age). Two injections were performed, the first 30 h and a second one 5 h before testing. Behavioral testing was performed using a well-accepted test for autism that consists of quantitative analysis of ultrasonic vocalizations emitted by male mice exposed to females in estrous^75. The apparatus consisted of an arena (40 cm×20 cm) surrounded by 30-cm-high walls made of grey plastic and equipped with a microphone and a video camera. Prior to testing, the estrous cycle of each female mouse was assessed and only females in estrous were kept for testing. Male mice were acclimatized for 3 min in the chamber. Subsequently a female in estrous was introduced in the arena, and ultrasonic vocalizations were recorded for 3 min using the Avisoft system (Avisoft Bioacoustics) with a frequency bandwidth of 30 kHz to 100 kHz. The number and length of ultrasonic vocalizations were quantified. All animal experiments were approved by the cantonal veterinary office Basel-Stadt, Switzerland.

[2] = tested on: nuclear active beta-catenin in BC-CML primary cells; test: Immunofluorescence of nuclear active beta-catenin in BC-CML primary cells; type: cell-based, human
From the text: Cord Blood (CB) samples were purchased from the Singapore Cord Blood bank. CML samples were the Singapore General Hospital after signed informed consent under local IRB-approved procedures. MNCs were obtained using Ficoll separation, and CD34^+ cells selected by immunomagnetic beads (Miltenyi Biotech, Germany).
Cells (1×10^5) were cytospun onto glass slides, fixed with 4% paraformaldehye, and stained with mouse monoclonal antibodies against activated β-catenin (clone 8E7, Millipore, UK), or rabbit monoclonal antibodies against phospho-eIF4E S209 (EP2151Y, Abcam, UK). Slides were then stained with either PE-conjugated anti-mouse or FITC-conjugated anti-rabbit antibodies. Images were obtained with the use of a fluorescence microscope (Olympus IX71S1F3) at 40× magnification.

[3] = tested on: P116.c139 (acute T cell leukemia); test: Cell cytotoxicity assay (CellTiter-Glo), P116.c139; type: cell-based; details: T-cell, cell viability
Experimental: Cancer cell lines, MV-4-11 (leukemia), P116.c139 (acute T cell leukemia) and D1.1 (acute T cell leukemia), were purchased from ATCC and cultured according to supplier's recommendations. K562 cells (myelogenous leukemia) over-expressing eIF4E, were also used for the cytotoxicity assay. For cells treated for 48 hours, 5000 cells were seeded in 70 μl of growth medium in black, flat-bottom 96-well plate. For cells treated for six days, 1000 cells were seeded in 70 μl of growth medium in black, flat-bottom 96-well plate. […] 50 μl of the diluted compounds was added to the cells and incubated at 37° C. in 5% CO2. After 48 hours or six days treatment, cell viability was determined by CellTiter-Glo Luminescent Cell Viability Assay (Promega, Madison, Wis.). 120 μl of the reagent was added to the cells and luminescence was measured using Tecan Safire Reader. Data was analysed with Graphpad Prism software and the figures represented indicate the half maximal inhibitory concentration (IC50). Error bars denote standard deviation (SD).

N#Cc1ccc(-c2cnc3ccc(-c4ccc(C(=O)N5CCOCC5)cc4)nn23)cc1 [Example 62, 4-(6-(4-(morpholine-4-carbonyl)phenyl)imidazo[1,2-b]pyridazin-3-yl)benzonitrile]
ultrasonic vocalizations of Nlgn3 knock-out male mice (autism-related behavior) (Nlgn3 knock-out mice): improves autism-relevant behavior
ultrasonic vocalizations of Nlgn3 knock-out male mice (autism-related behavior) (Nlgn3 knock-out mice; listed as ETC7168): robust elevation of ultrasonic vocalizations
eIF4G levels in brain sections from Nlgn3 knock-out mice [1]: elevated eIF4G levels
eIF4G levels in brain sections from Nlgn3 knock-out mice ([1]; listed as ECT7168): elevation in eIF4G levels
nuclear active beta-catenin in BC-CML primary cells, immunofluorescence [2]: decrease in nuclear beta-catenin accumulation
IC50 ([3]; 144 h, 6 days, read-out: IC50 after 6 days of treatment, P116.c139): 300 nM
IC50 ([3]; 48 hours, read-out: IC50 after 48 hours of treatment, P116.c139): 800 nM
